From PMC11584650, “An inhibitory segment within G-patch activators tunes Prp43-ATPase activity during ribosome assembly” (Nature Communications, 2024) come the findings set out here.

Usually Km stands for the substrate concentration at which the rate is half of its maximum.

Assay [1] addresses T1, Prp43:Tma23^M (Saccharomyces cerevisiae, UniProt P53131).
T1 construct: 1:1 complex of Prp43 with the middle (I-patch containing) domain of Tma23, co-expressed in E. coli; with Protein TMA23
Put plainly: pyruvate kinase/lactate dehydrogenase coupled NADH assay, Michaelis-Menten fit. The following applies: no RNA; 20 mM MgCl2, 50 mM Hepes pH 7.5, 200 mM KCl, room temperature, ATP up to 2.5 mM. The format is biochemical. The source says: pyruvate kinase/lactate dehydrogenase coupled NADH assay, Michaelis-Menten fit on Prp43:Tma23^M | We obtained kinetic parameters for the ATPase activities of Prp43, Prp43:Tma23^M and Ppr43:Pxr1^M complexes

In assay [2] the target is T2, Prp43:Pxr1^GM (Saccharomyces cerevisiae, UniProt P53131).
T2 construct: full-length Prp43 with G-patch plus middle domain of Pxr1 (137 residues), co-expressed in E. coli; resolved Prp43 52-718 and Pxr1 122-136; with Protein PXR1
T2 sequence (P53131 whole entry, the tested form may be a part): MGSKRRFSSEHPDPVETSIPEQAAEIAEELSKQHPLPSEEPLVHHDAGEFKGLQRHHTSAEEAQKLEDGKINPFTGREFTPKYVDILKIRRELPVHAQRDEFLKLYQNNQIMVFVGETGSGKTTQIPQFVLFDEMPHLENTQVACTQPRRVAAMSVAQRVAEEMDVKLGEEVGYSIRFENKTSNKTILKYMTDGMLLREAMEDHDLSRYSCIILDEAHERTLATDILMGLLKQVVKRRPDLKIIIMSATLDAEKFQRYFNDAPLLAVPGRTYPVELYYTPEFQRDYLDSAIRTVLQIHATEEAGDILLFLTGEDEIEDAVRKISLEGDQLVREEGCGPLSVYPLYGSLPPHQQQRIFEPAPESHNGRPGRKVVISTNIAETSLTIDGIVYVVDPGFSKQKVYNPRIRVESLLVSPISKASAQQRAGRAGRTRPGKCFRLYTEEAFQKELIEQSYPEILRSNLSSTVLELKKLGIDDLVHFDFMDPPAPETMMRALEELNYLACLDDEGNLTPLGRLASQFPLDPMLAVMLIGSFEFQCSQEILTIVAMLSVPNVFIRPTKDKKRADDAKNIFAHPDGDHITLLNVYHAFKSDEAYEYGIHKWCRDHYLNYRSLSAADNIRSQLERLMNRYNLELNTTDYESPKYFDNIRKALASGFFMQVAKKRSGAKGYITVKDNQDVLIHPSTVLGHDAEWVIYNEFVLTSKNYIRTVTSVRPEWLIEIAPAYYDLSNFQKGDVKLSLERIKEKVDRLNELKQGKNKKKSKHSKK
T2 sequence (P53335 1-137 partner): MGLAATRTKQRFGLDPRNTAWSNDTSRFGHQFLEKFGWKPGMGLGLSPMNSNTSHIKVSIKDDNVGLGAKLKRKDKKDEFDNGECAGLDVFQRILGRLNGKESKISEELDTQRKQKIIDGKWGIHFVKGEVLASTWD
The assay can be described thus: pyruvate kinase/lactate dehydrogenase coupled NADH assay, initial rate. Type of assay: biochemical. The following applies: 2.5 mM ATP, no RNA; 20 mM MgCl2, 50 mM Hepes pH 7.5, 200 mM KCl, room temperature.

T1 sequence (P53131 whole entry): as the sequence (P53131 whole entry, the tested form may be a part) above
T1 sequence (Q03525 whole entry partner): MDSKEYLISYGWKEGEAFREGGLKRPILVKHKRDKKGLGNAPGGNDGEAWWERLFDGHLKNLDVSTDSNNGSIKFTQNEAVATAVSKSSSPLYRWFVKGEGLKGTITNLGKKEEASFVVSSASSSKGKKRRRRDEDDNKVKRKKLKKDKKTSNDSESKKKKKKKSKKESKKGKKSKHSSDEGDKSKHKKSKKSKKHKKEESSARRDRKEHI

With `Nc1ncnc2c1ncn2[C@@H]1O[C@H](COP(=O)(O)OP(=O)(O)OP(=O)(O)O)[C@@H](O)[C@H]1O` [ATP], the Michaelis constant (Km) in assay [1] stood at 34 ± 4.56 µM. Besides, the “pyruvate kinase/lactate dehydrogenase coupled NADH assay, initial rate” value in assay [2] was “Pxr1^GM, Pxr1^GM-L33E, and Pxr1^M were co-expressed with Prp43”.
